Measured values taken from patent publication US20260234141A1, “COMPOUNDS AND COMPOSITIONS USEFUL AS DEGRADERS OF MK2 KINASE” (Celgene Corporation, priority 2023, published 2026).

Experiments:
MK2 = biological target: T1, MK2 (Homo sapiens, UniProt P49137); assay: MK2 degradation assay in MK2 overexpressed HiBiT-tagged cell line; assay type: cell-based; settings: cells stably expressing HiBiT-tagged MK2 (overexpressed), overnight incubation, read-out: HiBiT MK2 OE EC50
T1 construct: expressed in transfected cells
Method: A compound was dispensed into a white 384-well tissue-culture treated plate using an acoustic liquid handler. Dilutions were based on a 25 μL assay volume in duplicate 10 point 3-fold serial dilutions starting with a 10 μM dose. Negative control wells containing only 0.2% DMSO were also included to calculate 100% signal. All wells were backfilled to a final DMSO concentration of 0.2% to ensure DMSO uniformity across wells. Cells stably expressing HiBiT-tagged protein of interest were then washed, trypsinized, and counted.
These cells were then resuspended in fresh medium to give the proper concentration. This was done so that when cells were plated at a 25 μL seeding volume the assay would be conducted within the linear range from optimization of cell-based HiBiT assay. Following the above procedure, 25 μL of cells expressing HiBiT-tagged protein of interest were dispensed per well. Cells were then seeded into the 384-well plate that was pre-spotted with compounds. The resulting cells were incubated overnight at 37° C./5% CO2.
The 384-well plates were then removed from the incubator and left at room temperature for 30 min. The Nano-Glo HiBiT Lytic Detection Reagent was prepared according to manufacturer's instructions. 25 μL of Nano-Glo HiBiT Lytic Detection Reagent were added per well of a 384-well plate. The resulting plates were incubates for 30 min at room temperature. Luminescence signal was then read using a plate reader.
All luminescence values were normalized to the DMSO control wells. The average value of the DMSO control wells was set to equal 100% of the relative HiBiT-tagged target protein levels.
The luminescence values were plotted using a graphing software. Compound concentration was plotted on the x-axis and the corresponding relative protein of interest levels on the y-axis. Graphing software was used to determine the EC50 value (the half-maximum effective concentration) of a compound for the degradation of the HiBiT-tagged substrate. The software used a four-parameter logistic model (sigmoidal dose-response model) (FIT=(A+{(B−A)/1+[(C/x)^D]})) where C was the inflection point (EC50), D was the […], and A and B were the low and high limits of the fit, respectively) to calculate the EC50. The Ymin was calculated by determining the lowest percentage of target protein remaining following compound treatment.

[1] = biological target: T2, p38a activated, mitogen-activated protein kinase-activated protein kinase 2 (MAPKAP-K2 or MK2) enzyme (Homo sapiens, UniProt P49137); assay: MK2 OMNIA biochemical assay (AssayQuant continuous-read kinase assay); settings: [MK-2]=0.05 nM, [ATP]=100 μM, [AQT0425]=10 μM
T2 construct: purchased Invitrogen PV3317
Method: The protocol below describes a continuous-read kinase assay optimized to measure potency of compounds against p38a activated, mitogen-activated protein kinase-activated protein kinase 2 (MAPKAP-K2 or MK2) enzyme.
A 1.25× stock solution of MK2 (PV3317, from Invitrogen) and a 5× stock solution of ATP and Sox conjugated peptide substrate, AQT0425 (CSKS-AQT0425B, from AssayQuant Technologies), were prepared in 1× kinase reaction buffer consisting of 50 mM HEPES, pH 7.5, 0.01% Brij-35, 0.55 mM EGTA, 10 mM MgCl2 and 1 mM DTT.
10 μL of the ATP and substrate solution mix was added to a Corning (3574) 384-well, white, non-binding surface microtiter plate containing […] of serially diluted test compounds prepared in DMSO. The reactions were started with the addition of 40 μL of the enzyme solution and monitored every 71 seconds for 240 min at λex 360/λem 485 in a Synergy H4 plate reader from BioTek at room temperature.
The initial linear portions of the net progress curves were fit according to a linear equation to yield the slope and percentage of inhibition (% inhibition) at each compound concentration. The net progress curves obtained during the entirety of reactions were also fit according to an ascending single-exponential equation (Eq. 1) to yield Vobs values at each compound concentration. Plots of % Inhibition versus degrader concentrations were fit according to a dose-response equation (Eq. 2) to generate IC50 and Hill slope values while plots of Vobs versus degrader concentration were fit according to Equation 3 (Eq. 3) to generate apparent Kinact values using the GraphPad PRISM software.
where F is the fluorescence intensity from the plate reader, V0 is a constant reflecting the relationship between the instrument readout and product concentration, t is time, e is Euler's number, and Vobs is the observed inactivation rate constant.
where % Inhibition is percentage of inhibition, IC50 is half maximal inhibitory concentration, [I] is the degraders concentration, and n is the Hill slope.
where kobs is the observed inactivation rate constant, Kinact is the apparent inactivation rate constant, KI is the apparent inhibition constant, and [I] is the degrader concentration.

T1 sequence (P49137 whole entry): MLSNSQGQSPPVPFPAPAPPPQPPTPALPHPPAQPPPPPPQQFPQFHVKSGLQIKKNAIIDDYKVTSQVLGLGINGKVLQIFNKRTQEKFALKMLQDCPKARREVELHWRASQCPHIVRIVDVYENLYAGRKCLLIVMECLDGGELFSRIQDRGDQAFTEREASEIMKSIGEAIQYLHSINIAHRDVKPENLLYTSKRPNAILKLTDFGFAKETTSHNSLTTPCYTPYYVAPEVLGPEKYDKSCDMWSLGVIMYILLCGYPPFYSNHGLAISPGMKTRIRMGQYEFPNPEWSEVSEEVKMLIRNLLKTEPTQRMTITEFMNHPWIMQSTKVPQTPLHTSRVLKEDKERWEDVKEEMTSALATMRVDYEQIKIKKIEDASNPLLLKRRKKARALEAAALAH
T2 sequence (P49137 whole entry): as above

Question: What does the source list for `Cn1nc(C2CCC(=O)NC2=O)c2cccc(N3CCN(CCN4CCN(c5ccc(-c6cc(-c7cc8c([nH]7)CCNC8=O)ccn6)c(F)c5)CC4)CC3)c21` (stereo not drawn) [Example 1.13, 3-(7-(4-(2-(4-(3-Fluoro-4-(4-(4-oxo-4,5,6,7-tetrahydro-1H-pyrrolo[3,2-c]pyridin-2-yl)pyridin-2-yl)phenyl)piperazin-1-yl)ethyl)piperazin-1-yl)-1-methyl-1H-indazol-3-yl)piperidine-2,6-dione]?
Answer: DC50 (MK2): < 10 nM; IC50 [1]: 501 to 1000 nM

Question: With `Cn1nc(C2CCC(=O)NC2=O)c2ccc(N3CCN(CCN4CCN(c5cccc(-c6cc(-c7cc8c([nH]7)CCNC8=O)ccn6)c5)CC4)CC3)cc21` (stereo not drawn) [Example 1.11, 3-(1-Methyl-6-(4-(2-(4-(3-(4-(4-oxo-4,5,6,7-tetrahydro-1H-pyrrolo[3,2-c]pyridin-2-yl)pyridin-2-yl)phenyl)piperazin-1-yl)ethyl)piperazin-1-yl)-1H-indazol-3-yl)piperidine-2,6-dione] as the molecule, how does the DC50 (MK2) read?
Answer: Its DC50 is 101 to 500 nM.

Question: And the IC50 [1]?
Answer: The IC50 was less than 150 nM.

Question: What does the source list for `O=C1CCC(c2cccc(N3CCN(CC[C@H]4CC[C@H](NC(=O)c5ccc(-c6cc(-c7cc8c([nH]7)CCNC8=O)ccn6)c(F)c5)CC4)CC3)c2)C(=O)N1` (stereo partly drawn) [Example 1.9, N-(trans-4-(2-(4-(3-(2,6-Dioxopiperidin-3-yl)phenyl)piperazin-1-yl)ethyl)cyclohexyl)-3-fluoro-4-(4-(4-oxo-4,5,6,7-tetrahydro-1H-pyrrolo[3,2-c]pyridin-2-yl)pyridin-2-yl)benzamide]?
Answer: DC50 (MK2): 101 to 500 nM; IC50 [1]: 151 to 500 nM

Question: Which results are given for `Cn1nc(C2CCC(=O)NC2=O)c2ccc(N3CCN(C[C@H]4CC[C@H](NC(=O)c5ccc(-c6cc(-c7cc8c([nH]7)CCNC8=O)ccn6)c(F)c5)CC4)CC3)cc21` (stereo partly drawn) [Example 1.5, N-[trans-4-[[4-[3-(2,6-dioxo-3-piperidyl)-1-methyl-indazol-6-yl]piperazin-1-yl]methyl]cyclohexyl]-3-fluoro-4-[4-(4-oxo-1,5,6,7-tetrahydropyrrolo[3,2-c]pyridin-2-yl)-2-pyridyl]benzamide]?
Answer: DC50 (MK2): < 10 nM; IC50 [1]: < 150 nM

Question: Which DC50 (MK2) does the source give for `O=C1CCC(c2ccc(N3CCN(C[C@H]4CC[C@H](NC(=O)c5ccc(-c6cc(-c7cc8c([nH]7)CCNC8=O)ccn6)c(F)c5)CC4)CC3)cc2)C(=O)N1` (stereo partly drawn) [Example 1.6, N-(trans-4-((4-(4-(2,6-Dioxopiperidin-3-yl)phenyl)piperazin-1-yl)methyl)cyclohexyl)-3-fluoro-4-(4-(4-oxo-4,5,6,7-tetrahydro-1H-pyrrolo[3,2-c]pyridin-2-yl)pyridin-2-yl)benzamide] here?
Answer: The DC50 was 10 to 100 nM.

Question: And the IC50 [1]?
Answer: Its IC50 is 151 to 500 nM.

Question: What does the source list for `O=C1CCC(c2ccc(N3CCN(CC[C@H]4CC[C@H](NC(=O)c5ccc(-c6cc(-c7cc8c([nH]7)CCNC8=O)ccn6)c(F)c5)CC4)CC3)cc2)C(=O)N1` (stereo partly drawn) [Example 1.10, N-(trans-4-(2-(4-(4-(2,6-Dioxopiperidin-3-yl)phenyl)piperazin-1-yl)ethyl)cyclohexyl)-3-fluoro-4-(4-(4-oxo-4,5,6,7-tetrahydro-1H-pyrrolo[3,2-c]pyridin-2-yl)pyridin-2-yl)benzamide]?
Answer: DC50 (MK2): 10 to 100 nM; IC50 [1]: 501 to 1000 nM

Question: `Cn1nc(C2CCC(=O)NC2=O)c2ccc(N3CCN(CC[C@H]4CC[C@H](NC(=O)c5ccc(-c6cc(-c7cc8c([nH]7)CCNC8=O)ccn6)c(F)c5)CC4)CC3)cc21` (stereo partly drawn) [Example 1.8, N-(trans-4-(2-(4-(3-(2,6-Dioxopiperidin-3-yl)-1-methyl-1H-indazol-6-yl)piperazin-1-yl)ethyl)cyclohexyl)-3-fluoro-4-(4-(4-oxo-4,5,6,7-tetrahydro-1H-pyrrolo[3,2-c]pyridin-2-yl)pyridin-2-yl)benzamide] was tested. Which DC50 (MK2) did it give?
Answer: Its DC50 is less than 10 nM.

Question: And the IC50 [1]?
Answer: Its IC50 is 501 to 1000 nM.

Question: How did the DC50 (MK2) turn out when `O=C1CCC(c2cccc(N3CCN(C[C@H]4CC[C@H](NC(=O)c5ccc(-c6cc(-c7cc8c([nH]7)CCNC8=O)ccn6)c(F)c5)CC4)CC3)c2)C(=O)N1` (stereo partly drawn) [Example 1.7, N-(trans-4-((4-(3-(2,6-Dioxopiperidin-3-yl)phenyl)piperazin-1-yl)methyl)cyclohexyl)-3-fluoro-4-(4-(4-oxo-4,5,6,7-tetrahydro-1H-pyrrolo[3,2-c]pyridin-2-yl)pyridin-2-yl)benzamide] was run?
Answer: The DC50 was 10 to 100 nM.

Question: What about the IC50 [1] of the same molecule?
Answer: Its IC50 is 151 to 500 nM.

Question: What does the source list for `O=C1CCC(c2ccc(N3CCN(CCN4CCN(c5cccc(-c6cc(-c7cc8c([nH]7)CCNC8=O)ccn6)c5)CC4)CC3)cc2)C(=O)N1` (stereo not drawn) [Example 1.12, 3-(4-(4-(2-(4-(3-(4-(4-Oxo-4,5,6,7-tetrahydro-1H-pyrrolo[3,2-c]pyridin-2-yl)pyridin-2-yl)phenyl)piperazin-1-yl)ethyl)piperazin-1-yl)phenyl)piperidine-2,6-dione]?
Answer: DC50 (MK2): > 500 nM; IC50 [1]: 151 to 500 nM
